# Laboratory results published in patent US20180148418A1, “AMIDO-SUBSTITUTED CYCLOHEXANE DERIVATIVES” (Bayer Pharma Aktiengesellschaft, priority 2015, published 2018).
# Target: wildtype Wnt signaling cascade
# Experiment: HEK293 TOP assay (Super TopFlash luciferase reporter, Wnt-3a stimulated)
# Assay type: cell-based
# Settings: HEK293 TOP reporter cells, Wnt3a at EC50, 16 hours
# Method in brief: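 Compound series (50 μM down to 15 nM, 3.16-fold) diluted from DMSO 50-fold into CAFTY buffer, pH 7.4, 2 mM Ca^2+, 0.01% BSA, applied to Wnt-3a-stimulated HEK293 TopFlash and FOP reporter lines in parallel. Cells seeded 10000/well 24 h before; luciferase signal measured.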
row,SMILES,IC50 [µM]
1,"CNC(=O)c1[nH]cnc1C(=O)NC1CCC(C(=O)Nc2ccc(F)cc2Cl)CC1OC (stereo not drawn) [Example 36, N^4-{(1α,2β,4β)-4-[(2-chloro-4-fluorophenyl)carbamoyl]-2-methoxycyclohexyl}-N^5-methyl-1H-imidazole-4,5-dicarboxamide]",4.9

# Same assay, conditions: Homo sapiens, HEK293, 16 h, HEK293 TOP reporter cells, Wnt3a at EC50, 16 hours
row,IC50 [µM],SMILES
1,0.11,"Cc1cc(F)cc(Cl)c1NC(=O)[C@H]1CC[C@H](NC(=O)c2cnn3cccnc23)CC1 [Example 151, N-{trans-4-[(2-chloro-4-fluoro-6-methylphenyl)carbamoyl]cyclohexyl}pyrazolo[1,5-a]pyrimidine-3-carboxamide]"
2,0.055,"O=C(NCCN1CCCCC1)c1nc[nH]c1C(=O)N[C@H]1CC[C@@]2(CCN(c3ccc(F)cc3Cl)C2=O)CC1 [Example 161, N^5-[(trans)-2-(2-chloro-4-fluorophenyl)-1-oxo-2-azaspiro[4.5]dec-8-yl]-N^4-[2-(piperidin-1-yl)ethyl]-1H-imidazole-4,5-dicarboxamide]"
3,0.01,"O=C(NCCN1CCCCC1)c1nc[nH]c1C(=O)N[C@H]1CC[C@H](C(=O)Nc2cc(F)c(F)cc2Cl)CC1 [Example 4, N^5-{trans-4-[(2-chloro-4,5-difluorophenyl)carbamoyl]cyclohexyl}-N^4-[2-(piperidin-1-yl)ethyl]-1H-imidazole-4,5-dicarboxamide]"
4,0.0012,"O=C(N[C@H]1CC[C@@]2(CCN(c3ccc(F)cc3Cl)C2=O)CC1)c1cnn2cccnc12 [Example 136, N-[(trans)-2-(2-chloro-4-fluorophenyl)-1-oxo-2-azaspiro[4.5]dec-8-yl]pyrazolo[1,5-a]pyrimidine-3-carboxamide]"
5,0.72,"O=C(NCC1CCCO1)c1nc[nH]c1C(=O)N[C@H]1CC[C@H](C(=O)Nc2cc(C(F)(F)F)ccc2Cl)CC1 (stereo partly drawn) [Example 146, N^5-(trans-4-{[2-chloro-5-(trifluoromethyl)phenyl]carbamoyl}cyclohexyl)-N^4-(tetrahydrofuran-2-ylmethyl)-1H-imidazole-4,5-dicarboxamide]"
6,0.034,"O=C(NCC1CCCO1)c1nc[nH]c1C(=O)N[C@H]1CC[C@H](C(=O)Nc2cnccc2Cl)CC1 (stereo partly drawn) [Example 97, N^5-{trans-4-[(4-chloropyridin-3-yl)carbamoyl]cyclohexyl}-N^4-(tetrahydrofuran-2-ylmethyl)-1H-imidazole-4,5-dicarboxamide]"
7,0.055,"CNC(=O)c1nc[nH]c1C(=O)N[C@H]1CC[C@H](C(=O)Nc2c(F)cc(F)cc2Cl)CC1 [Example 6, N^5-{trans-4-[(2-chloro-4,6-difluorophenyl)carbamoyl]cyclohexyl}-N^4-methyl-1H-imidazole-4,5-dicarboxamide]"
8,0.29,"O=C(NC12CCC(C(=O)Nc3cnccc3Cl)(CC1)CC2)c1cnc2cccnn12 [Example 124, N-{4-[(4-chloropyridin-3-yl)carbamoyl]bicyclo[2.2.2]oct-1-yl}imidazo[1,2-b]pyridazine-3-carboxamide]"
9,0.038,"Cc1cc(C)n2ncc(C(=O)N[C@H]3CC[C@H](C(=O)Nc4c(F)cc(F)cc4Cl)CC3)c2n1 [Example 135, N-{trans-4-[(2-chloro-4,6-difluorophenyl)carbamoyl]cyclohexyl}-5,7-dimethylpyrazolo[1,5-a]pyrimidine-3-carboxamide]"
10,0.3,"Cc1cc(NC(=O)C23CCC(NC(=O)c4cnn5cccnc45)(CC2)CC3)c(Cl)cc1F [Example 118, N-{4-[(2-chloro-4-fluoro-5-methylphenyl)carbamoyl]bicyclo[2.2.2]oct-1-yl}pyrazolo[1,5-a]pyrimidine-3-carboxamide]"
11,0.069,"Cc1cc(C)n2ncc(C(=O)NC34CCC(C(=O)Nc5ccc(F)cc5Cl)(CC3)CC4)c2n1 [Example 125, N-{4-[(2-chloro-4-fluorophenyl)carbamoyl]bicyclo[2.2.2]oct-1-yl}-5,7-dimethylpyrazolo[1,5-a]pyrimidine-3-carboxamide]"
12,0.18,"CNC(=O)c1nc[nH]c1C(=O)N[C@H]1CC[C@H](C(=O)Nc2ccc(C)cc2Cl)CC1 [Example 9, N^5-{trans-4-[(2-chloro-4-methylphenyl)carbamoyl]cyclohexyl}-N^4-methyl-1H-imidazole-4,5-dicarboxamide]"
13,0.088,"Cc1cnc2c(C(=O)N[C@H]3CC[C@H](C(=O)Nc4ccncc4Cl)CC3)cnn2c1 [Example 104, N-{trans-4-[(3-chloropyridin-4-yl)carbamoyl]cyclohexyl}-6-methyl pyrazolo[1,5-a]pyrimidine-3-carboxamide]"
14,0.0094,"CC(C)NC(=O)c1nc[nH]c1C(=O)N[C@H]1CC[C@@]2(CCN(c3ccc(F)cc3Cl)C2=O)CC1 [Example 162, N^5-[(trans)-2-(2-chloro-4-fluorophenyl)-1-oxo-2-azaspiro[4.5]dec-8-yl]-N^4-isopropyl-1H-imidazole-4,5-dicarboxamide]"
15,0.24,"Cc1cc(C)n2ncc(C(=O)NC34CCC(C(=O)Nc5cnccc5Cl)(CC3)CC4)c2n1 [Example 128, N-{4-[(4-chloropyridin-3-yl)carbamoyl]bicyclo[2.2.2]oct-1-yl}-5,7-dimethylpyrazolo[1,5-a]pyrimidine-3-carboxamide]"
16,0.33,"CNC(=O)c1[nH]cnc1C(=O)NC12CCC(C(=O)Nc3c(F)cc(F)cc3Cl)(CC1)CC2 [Example 116, N^4-{4-[(2-chloro-4,6-difluorophenyl)carbamoyl]bicyclo[2.2.2]oct-1-yl}-N^5-methyl-1H-imidazole-4,5-dicarboxamide]"
